Assay results published in patent US9192599B2, “Treating inflammation and inflammatory pain in mucosa using mucosal prolonged release bioadhesive therapeutic carriers” (Onxeo S.A., priority 2008, dated 2015).
Where “and” joins values, the source holds several entries; their conditions need not be identical. Equal entries are not always repeated. Where two headings read alike, the source gives them in different places.

Tests used:
[1] = system: TNFα; test: TNFα quantification by ELISA in human oral mucosa organotypic culture stimulated by substance P; assay type: cell-based
Experimental: Biopsy samples of clinically healthy non keratinised human oral mucosa were obtained from patients undergoing surgery.
Small biopsies (explant size: 5 mm^2 surface and 3 mm thickness and about 15 to 20 mg weight) were transferred onto permeable polycarbonate membrane transwells (12 mm diameter, 12 μm pore size) in a well of a 12 well plate (as previously described Boisnic S. et al., 2003 and 2006) containing 700 μl of defined medium (DMEM, antibiotics, hormones, pituitary extract, SVF). For each donor, the gingival biopsy was cut to obtain the same weight so that to have comparison between different conditions tested. Explants were maintained at the interface between air and medium: the oral mucosa epithelium was in contact with air and the chorion was exposed to the media by diffusion through the porous polycarbonate membrane.
Cohesion between gingival fragment and insert was obtained with a polyvinylsiloxane addition type silicone elastomer seal (Coltene® president) in such a way that no gingival retraction or lateral passage of the product towards the dermis was possible. The culture was set up for 2 days in a humidified atmosphere containing 5% CO2 at 37° C.
The stimulation of the experimental oral mucosa inflammatory process was done by the neuropeptide substance P (SP) (Boisnic et al., 2003).
The neuropetide SP ([SP]=10 μM) was added (or not) to the culture medium in order to simulate the mucositis pro-inflammatory process. SP was in contact with the mucosal chorion after diffusion through the porous membrane.
The cell culture lasted two days (“D0” for the first day and “D1” for the second day).
Therefore the clonidine treatment was done before and during substance P stimulation.
Removed D1 culture medium in each well; aliquot it in 7 samples of 100 μl and store at −80° C. for cytokines release analysis.
At the end of each culture all the human oral mucosa explants were weighed (cytokines release expressed as pg/mg of cultured oral mucosa explants).
Mean values and standard deviations were calculated for each parameter. The statistical significance of changes recorded in the parameters were determined with unpaired Mann-Whitney U test (p<0.05).

[2] = system: mucositis in hamsters; details: for mucositis severity, daily scores vs vehicle control (Mann-Whitney rank sum): day −1 to 20; for average weight gain, % of starting weight: days −1 to 20, topical; for animal days with mucositis score of 3 or higher / peak mean mucositis score: days −1 to 20; for peak mean mucositis score: peak on day 16, scale 0-5; for course and severity of mucositis, comparison of schedules: day −1 to 20, topical
Experimental: Thirty-two (32) male Syrian Golden Hamsters were randomly assigned to four (4) equally-sized groups. […] All agents were administered topically. On study day 0, each hamster was irradiated with a single dose of 40 Gy directed to the left buccal cheek pouch. Animals were subsequently weighed and observed daily. Beginning on day 6 and continuing on alternate days for the duration of the study, images of the left cheek pouch mucosa was obtained. At the conclusion of the in-life phase of the study, the images were scored for mucositis severity using a validated scale and the number of days of ulcerative mucositis was assessed using a Chi-squared test of scores of ≧3 throughout the study. The individual daily group scores were evaluated using a rank sum test.
Mucositis was induced using a standardized acute radiation protocol. A single dose of radiation (40 Gy/dose) was administered to all animals on day 0. Radiation was generated with a 160 kilovolt potential (15-ma) source at a focal distance of 40 cm, hardened with a 0.35 mm Al filtration system. Irradiation targeted the left buccal pouch mucosa at a rate of 2.5 Gy/minute. Prior to irradiation, animals were anesthetized with an intraperitoneal injection of Ketamine (160 mg/ml) and Xylazine (8 mg/ml). The left buccal pouch was everted, fixed and isolated using a lead shield.
For the evaluation of mucositis, the animals were anesthetized with an Inhalation anesthetic, and the left pouch everted. Mucositis was scored visually by comparison to a validated photographic scale, ranging from 0 for normal, to 5 for severe ulceration (clinical scoring). In descriptive terms, this scale is defined in Table 2:
A score of 1-2 is considered to represent a mild stage of the disease, whereas a score of 3-5 is considered to indicate moderate to severe mucositis. Following visual scoring, a photograph was taken of each animal's mucosa using a standardized technique. At the conclusion of the experiment, all films were developed and the photographs randomly numbered. At least two independent trained observers graded the photographs in blinded fashion using the above-described scale (blinded scoring).
Test materials were given by topical administration directed to the left cheek pouch daily as detailed in Table 3.
to day 20. Animals in Groups 1, 3 and 4 were dosed at 6 am, 11 am, 4 pm and 9 pm. Animals in Group 2 were dosed at 6 am.
Mucositis was evaluated clinically starting on Day 6, and continuing on alternate days until day 28.

## Clc1cccc(Cl)c1NC1=NCCN1 [clonidine, N-(2,6-dichlorophenyl)-4,5-dihydro-1H-imidazol-2-amine]
[1]; doses 0.009, 0.03, 0.09 and 0.3 μg/ml
  anti-inflammatory effect on gingiva stimulated by SP: No significant anti-inflammatory effect
[1]; gingiva + SP, 0.009 μg/ml clonidine
  TNFα quantification by ELISA: 1.14 ± 0.7 pg/mg
[1]; gingiva + SP, 0.03 μg/ml clonidine
  TNFα quantification by ELISA: 1.02 ± 0.4 pg/mg
[1]; gingiva + SP, 0.09 μg/ml clonidine
  TNFα quantification by ELISA: 1.08 ± 0.29 pg/mg
[1]; gingiva + SP, 0.3 μg/ml clonidine
  TNFα quantification by ELISA: 0.86 ± 0.4 pg/mg
[1]; gingiva + SP, 0.9 μg/ml clonidine
  TNFα quantification by ELISA: 0.74 pg/mg and 0.74 ± 0.36 (* p = 0.0106) pg/mg
[1]; gingiva + SP, 3 μg/ml clonidine
  TNFα quantification by ELISA: 0.67 pg/mg and 0.67 ± 0.27 (* p = 0.0056) pg/mg
[1]; gingiva without SP, 3 μg/ml clonidine
  TNFα quantification by ELISA: 0.83 ± 0.40 pg/mg
[1]; gingiva without SP, 3 μg/ml clonidine, listed as Clonidine
  TNFα quantification by ELISA: 0.83 pg/mg
[2]; 12.5 μg/kg 4 times daily, days 20, 22 and 24
  mucositis severity, daily scores vs vehicle control (Mann-Whitney rank sum): significantly lower mucositis scores than the vehicle controls
[2]; 12.5 μg/kg 4 times daily, days 20, 22 and 24, listed as Clonidine
  mucositis severity, daily scores vs vehicle control (Mann-Whitney rank sum): significantly reduced the severity of mucositis
[2]; 12.5 μg/kg 4 times daily
  average weight gain, % of starting weight: 46.1%
  peak mean mucositis score: 3.0
[2]; 12.5 μg/kg 4 times daily, p=0.047 vs vehicle
  animal days with mucositis score of 3 or higher: 26.0%
[2]; 25 μg/kg 4 times daily, days 6 and 14
  mucositis severity, daily scores vs vehicle control (Mann-Whitney rank sum): significantly lower mucositis scores than the vehicle controls
[2]; 25 μg/kg 4 times daily, days 6 and 14, listed as Clonidine
  mucositis severity, daily scores vs vehicle control (Mann-Whitney rank sum): significantly reduced the severity of mucositis
[2]; 25 μg/kg 4 times daily
  average weight gain, % of starting weight: 45.0%
  peak mean mucositis score: 3.1
[2]; 25 μg/kg 4 times daily, p=0.125 vs vehicle
  animal days with mucositis score of 3 or higher: 28.1%
[2]; 100 μg/kg once daily
  course and severity of mucositis, comparison of schedules: superior to the other concentrations and schedules tested
  average weight gain, % of starting weight: 51.3%
  peak mean mucositis score: 2.8
[2]; 100 μg/kg once daily, listed as Clonidine
  course and severity of mucositis, comparison of schedules: favorably altered the course and severity of mucositis
[2]; 100 μg/kg once daily, days 16, 20 and 22
  mucositis severity, daily scores vs vehicle control (Mann-Whitney rank sum): significantly different than the vehicle control group
[2]; 100 μg/kg once daily, days 16, 20 and 22, listed as Clonidine
  mucositis severity, daily scores vs vehicle control (Mann-Whitney rank sum): significantly reduced the severity of mucositis
[2]; 100 μg/kg once daily, p=0.003 vs vehicle
  animal days with mucositis score of 3 or higher: 21.9%
[2]; all three treatment groups, p=0.0007
  severity of mucositis based on mucositis score area under the curve: severity of mucositis was reduced
[2]; any of the doses tested
  adverse reaction to treatment: no evidence of any significant adverse reaction

## SP: neuropeptide substance P added to culture medium to simulate the mucositis pro-inflammatory process
[1]; gingiva + SP 10 μM, no clonidine (positive control)
  TNFα quantification by ELISA: 1.7 ± 1.09 (# p = 0.0056) pg/mg
[1]; gingiva + SP 10 μM, no clonidine (positive control), listed as substance P
  TNFα quantification by ELISA: 1.7 pg/mg
